Measured values reported in publication PMC9516332 (Frontiers in Oncology, 2022).
pIC50: −log10 of the molar value. Read-outs that look alike come from different tables or passages of the source.

Legend:
134 cancer cell lines = assay: Cell viability assay (ATPlite, 72 hours), IC50 on cancer cell line panel
AP-1060 (ETV6-NTRK3) = assay: Cell viability assay; settings: read-out: IC50 in cell proliferation assay

With `Cc1cc(Nc2ncc(Cl)c(Nc3ccccc3S(=O)(=O)C(C)C)n2)c(OC(C)C)cc1C1CCNCC1` [ceritinib] the pIC50 (134 cancer cell lines; Homo sapiens, MOLM-13, read-out: IC50 in cell proliferation assay, MOLM-13 cell line (FLT3 ITD)) was 6.00, the pIC50 (134 cancer cell lines; Homo sapiens, MOLT-4, read-out: IC50 in cell proliferation assay, MOLT-4 cell line) was 5.43 and the pIC50 (134 cancer cell lines; Homo sapiens, MV4-11, read-out: IC50 in cell proliferation assay, MV4-11 cell line (FLT3 ITD)) was 5.91. The pIC50 (134 cancer cell lines; Homo sapiens, MeWo, read-out: IC50 in cell proliferation assay, MeWo cell line) was 5.50, the pIC50 (134 cancer cell lines; Homo sapiens, NCCIT, read-out: IC50 in cell proliferation assay, NCC-IT cell line) was 5.51 and the pIC50 (134 cancer cell lines; Homo sapiens, NCI-H82, read-out: IC50 in cell proliferation assay, cell line NCI-H82) was 5.80. It also gave a pIC50 (134 cancer cell lines; Homo sapiens, NCI-H460, read-out: IC50 in cell proliferation assay, NCI-H460 cell line) of 5.50, a pIC50 (134 cancer cell lines; Homo sapiens, NCI-H661, read-out: IC50 in cell proliferation assay, NCI-H661 cell line) of 5.46 and a pIC50 (134 cancer cell lines; Homo sapiens, NCI-H716, read-out: IC50 in cell proliferation assay, cell line NCI-H716 (FGFR2-COL14A1)) of 5.81. For the same compound, the pIC50 (134 cancer cell lines; Homo sapiens, NCI-H1650, read-out: IC50 in cell proliferation assay, NCI-H1650 cell line (EGFR exon19del)) was 5.47, the pIC50 (134 cancer cell lines; Homo sapiens, NCI-H1975, read-out: IC50 in cell proliferation assay, NCI-H1975 cell line (EGFR p.L858R + p.T790M)) was 5.72 and the pIC50 (134 cancer cell lines; Homo sapiens, NCI-H2228, read-out: IC50 in cell proliferation assay, NCI-H2228 cell line (EML4-ALK)) was 7.42. It also gave a pIC50 (134 cancer cell lines; Homo sapiens, OVCAR-3, read-out: IC50 in cell proliferation assay, cell line OVCAR-3) of 5.29, a pIC50 (134 cancer cell lines; Homo sapiens, PFSK-1, read-out: IC50 in cell proliferation assay, cell line PFSK-1) of 5.81 and a pIC50 (134 cancer cell lines; Homo sapiens, RL95-2, read-out: IC50 in cell proliferation assay, cell line RL95-2 (EGFR p.A289V)) of 5.76. It also gave a pIC50 (134 cancer cell lines; Homo sapiens, RPMI-7951, read-out: IC50 in cell proliferation assay, cell line RPMI-7951 (BRAF p.V600E)) of 5.43, a pIC50 (134 cancer cell lines; Homo sapiens, RS4-11, read-out: IC50 in cell proliferation assay, cell line RS4;11) of 5.97 and a pIC50 (134 cancer cell lines; Homo sapiens, Rec1, read-out: IC50 in cell proliferation assay, cell line REC-1) of 5.65. For the same compound, the pIC50 (134 cancer cell lines; Homo sapiens, SHP77, read-out: IC50 in cell proliferation assay, cell line SHP-77) was 5.47, the pIC50 (134 cancer cell lines; Homo sapiens, SK-BR-3, read-out: IC50 in cell proliferation assay, cell line SK-BR-3 (ERBB2 amplification)) was 5.41 and the pIC50 (134 cancer cell lines; Homo sapiens, SK-N-AS, read-out: IC50 in cell proliferation assay, cell line SK-N-AS) was 5.68. For the same compound, the pIC50 (134 cancer cell lines; Homo sapiens, SK-N-FI, read-out: IC50 in cell proliferation assay, cell line SK-N-FI) was 6.27, the pIC50 (134 cancer cell lines; Homo sapiens, SK-N-MC, read-out: IC50 in cell proliferation assay, cell line SK-N-MC) was 6.15 and the pIC50 (134 cancer cell lines; Homo sapiens, SK-N-SH, read-out: IC50 in cell proliferation assay, cell line SK-N-SH (ALK p.F1174L)) was 6.06. The pIC50 (134 cancer cell lines; Homo sapiens, SNU-5, read-out: IC50 in cell proliferation assay, cell line SNU-5 (MET amplification)) was 5.41, the pIC50 (134 cancer cell lines; Homo sapiens, SNU-16, read-out: IC50 in cell proliferation assay, cell line SNU-16 (FGFR2 amplification)) was 5.42 and the pIC50 (134 cancer cell lines; Homo sapiens, SNU-C2B, read-out: IC50 in cell proliferation assay, cell line SNU-C2B (EGFR p.R165Q)) was 5.60. For the same compound, the pIC50 (134 cancer cell lines; Homo sapiens, SU-DHL-1, read-out: IC50 in cell proliferation assay, cell line SU-DHL-1 (NPM1-ALK)) was 6.72, the pIC50 (134 cancer cell lines; Homo sapiens, SU-DHL-6, read-out: IC50 in cell proliferation assay, cell line SU-DHL-6) was 5.53 and the pIC50 (134 cancer cell lines; Homo sapiens, SUP-T1, read-out: IC50 in cell proliferation assay, cell line SUP-T1) was 5.46. For the same compound, the pIC50 (134 cancer cell lines; Homo sapiens, SW48, read-out: IC50 in cell proliferation assay, cell line SW48 (EGFR p.G719S)) was 5.89, the pIC50 (134 cancer cell lines; Homo sapiens, SW480, read-out: IC50 in cell proliferation assay, cell line SW480) was 5.61 and the pIC50 (134 cancer cell lines; Homo sapiens, SW626, read-out: IC50 in cell proliferation assay, cell line SW626) was 5.47. The pIC50 (134 cancer cell lines; Homo sapiens, SW780, read-out: IC50 in cell proliferation assay, cell line SW780 (FGFR3-BAIAP2L1)) was 5.68, the pIC50 (134 cancer cell lines; Homo sapiens, SW837, read-out: IC50 in cell proliferation assay, cell line SW837) was 5.53 and the pIC50 (134 cancer cell lines; Homo sapiens, SW872, read-out: IC50 in cell proliferation assay, cell line SW872 (BRAF p.V600E)) was 5.56. It also gave a pIC50 (134 cancer cell lines; Homo sapiens, SW900, read-out: IC50 in cell proliferation assay, cell line SW900) of 5.63, a pIC50 (134 cancer cell lines; Homo sapiens, SW948, read-out: IC50 in cell proliferation assay, cell line SW948) of 5.64 and a pIC50 (134 cancer cell lines; Homo sapiens, SW982, read-out: IC50 in cell proliferation assay, cell line SW982 (BRAF p.V600E)) of 5.38. The pIC50 (134 cancer cell lines; Homo sapiens, SW-620, read-out: IC50 in cell proliferation assay, cell line SW620) was 5.81, the pIC50 (134 cancer cell lines; Homo sapiens, T98G, read-out: IC50 in cell proliferation assay, cell line T98G) was 5.33 and the pIC50 (134 cancer cell lines; Homo sapiens, TCC-SUP, read-out: IC50 in cell proliferation assay, cell line TCCSUP) was 5.42. For the same compound, the pIC50 (134 cancer cell lines; Homo sapiens, THP-1, read-out: IC50 in cell proliferation assay, cell line THP-1) was 5.32, the pIC50 (134 cancer cell lines; Homo sapiens, U2OS, read-out: IC50 in cell proliferation assay, cell line U2OS) was 5.41 and the pIC50 (134 cancer cell lines; Homo sapiens, U-87 MG, read-out: IC50 in cell proliferation assay, cell line U-87MG ATCC) was 5.35. For the same compound, the pIC50 (134 cancer cell lines; Homo sapiens, U-118-MG, read-out: IC50 in cell proliferation assay, cell line U-118MG) was 5.41, the pIC50 (134 cancer cell lines; Homo sapiens, UMUC3, read-out: IC50 in cell proliferation assay, cell line UM-UC-3) was 5.59 and the pIC50 (134 cancer cell lines; Hs766T, read-out: IC50 in cell proliferation assay, Hs 766T cell line) was 5.45. The pIC50 (134 cancer cell lines; L-82, read-out: IC50 in cell proliferation assay, L-82 cell line (NPM1-ALK)) was 7.48, the pIC50 (134 cancer cell lines; Rh30, read-out: IC50 in cell proliferation assay, cell line Rh30) was 5.99 and the pIC50 (134 cancer cell lines; read-out: IC50 in cell proliferation assay, 11-18 cell line (EGFR p.L858R)) was 5.68. The pIC50 (134 cancer cell lines; read-out: IC50 in cell proliferation assay, Hs 852.T cell line) was 5.73, the pIC50 (134 cancer cell lines; read-out: IC50 in cell proliferation assay, JAR cell line) was 5.45 and the pIC50 (134 cancer cell lines; read-out: IC50 in cell proliferation assay, cell line 5637) was 5.60. It also gave a pIC50 (134 cancer cell lines; read-out: IC50 in cell proliferation assay, cell line A-388) of 5.44, a pIC50 (134 cancer cell lines; read-out: IC50 in cell proliferation assay, cell line DB) of 5.40 and a pIC50 (134 cancer cell lines; read-out: IC50 in cell proliferation assay, cell line DEL (NPM1-ALK)) of 7.21. For the same compound, the pIC50 (134 cancer cell lines; read-out: IC50 in cell proliferation assay, cell line ES-2 (BRAF p.V600E)) was 5.55, the pIC50 (134 cancer cell lines; read-out: IC50 in cell proliferation assay, cell line PA-1) was 5.68 and the pIC50 (134 cancer cell lines; read-out: IC50 in cell proliferation assay, cell line PC-3) was 5.39. The pIC50 (134 cancer cell lines; read-out: IC50 in cell proliferation assay, cell line RD) was 5.77, the pIC50 (134 cancer cell lines; read-out: IC50 in cell proliferation assay, cell line RKO (BRAF p.V600E)) was 5.79 and the pIC50 (134 cancer cell lines; read-out: IC50 in cell proliferation assay, cell line RL) was 5.39. It also gave a pIC50 (134 cancer cell lines; read-out: IC50 in cell proliferation assay, cell line RT-4 (FGFR3-TACC3)) of 5.39, a pIC50 (134 cancer cell lines; read-out: IC50 in cell proliferation assay, cell line SR (NPM1-ALK)) of 6.70 and a pIC50 (134 cancer cell lines; read-out: IC50 in cell proliferation assay, cell line T24) of 5.39. The pIC50 (134 cancer cell lines; read-out: IC50 in cell proliferation assay, cell line TT (RET p.C634W)) was 5.42, the pIC50 (134 cancer cell lines; read-out: IC50 in cell proliferation assay, cell line VA-ES-BJ) was 5.37 and the pIC50 (AP-1060 (ETV6-NTRK3)) was 5.75.
